Data as given in publication PMC11596155, “When Chirality Makes the Difference: The Case of Novel Enantiopure N-Heterocyclic Carbene–Gold and –Silver Complexes” (Molecules, 2024).

What was measured:
MCF-10A cells = test: MTT assay, cytotoxicity on normal mammary epithelial cells MCF-10A; format: cell-based, human; details: 72 h, normal cells, mean ± SD of three experiments
Method: (§1) All cell lines used for the reported studies were purchased from the American Type Culture Collection (ATCC, Manassas, VA, USA). Human breast cancer cells MCF-7 and MDA-MB-231 were maintained in Dulbecco’s Modified Eagle Medium/Nutrient Mixture F12 Ham (DMEM/F12) supplemented with 5% fetal bovine serum (FBS), 1% L-glutamine and 100 units/mL of penicillin/streptomycin. Human mammary epithelial cells MCF-10A were cultured in DMEM/F12 medium, supplemented with 5% horse serum (HS), 100 units/mL of penicillin/streptomycin, […], 0.02 µg/mL human epidermal growth factor (EGF), 10 µg/mL insulin and […] [34]. The murine macrophages RAW 264.7 were grown in Dulbecco’s Modified Eagle’s Medium (DMEM) high glucose (4.5 g/L), added with 10% fetal bovine serum (FBS), 1% L-glutamine and 100 units/mL of penicillin/streptomycin. Cells were maintained at 37 °C, in a humidified atmosphere containing 5% CO2.
(§2) Cell viability was determined using the 3-(4,5-dimethylthiazol-2-y1)-2,5-diphenyltetrazolium bromide assay (MTT, Sigma-Aldrich, Milan, Italy), as in [35]. Cells were treated for 72 h (anticancer activity) or 24 h (anti-inflammatory activity) at different concentrations and the IC50 values were obtained using GraphPad Prism 9 software (GraphPad Software, La Jolla, CA, USA).

[1] = tested on: Staphylococcus aureus (ATCC 23235); test: MIC and MBC by broth dilution, S. aureus; format: cell-based; details: for M.B.C. S. aureus / M.I.C. S. aureus / MIC: broth dilution, overnight 37 °C; for MIC: Staphylococcus aureus, ATCC23235, read-out: M.I.C. S. aureus
Description: (§3) The bacterial strains used for MIC and MBC value determinations expressed as µg/mL by the broth dilution method, according to CLSI guidelines, were the following: Gram-negative: Escherichia coli (ATCC® 25922TM); Gram-positive: Staphylococcus aureus (ATCC® 23235TM). The MIC represents the lowest concentration of compound able to inhibit the visible microbial growth, expressed in μg/mL, whereas the MBC is the lowest concentration of a given compound that can completely kill the bacteria. Bacteria were grown overnight in LB medium (2%), diluted at a density of […] colony forming units (CFUs/mL), plated in the 96-well microplates to obtain a total inoculum load of ca. 10^5 cells/well and then treated with increasing concentrations of the tested complexes (1, 5, 10, 20, 50, 100, 200 μg/mL). Successively, after incubation at 37 °C overnight, the bacterial growth was monitored at a wavelength of 600 nm using a Multiskan spectrophotometer (Multiskan Ex Microplate model; Thermo Scientific, Nyon, Switzerland). MIC or MBC values were obtained by comparing cell density with a positive control (bacterial cells grown in LB medium were added with only the vehicle, DMSO). The results were representative of three independent experiments performed in triplicate and ampicillin (Sigma Aldrich A9393) was used as the control for strain sensitivity.

MCF-7 cells = test: MTT assay, anticancer activity, MCF-7; format: cell-based, human; details: mean ± SD of three experiments
Method: as §1, §2

[2] = tested on: Escherichia coli (ATCC 25922); test: MIC and MBC by broth dilution, E. coli; format: cell-based; details: for M.B.C. E. coli / M.I.C. E. coli / MIC: broth dilution, overnight 37 °C; for MIC: Escherichia coli, ATCC25922
Description: as §3

MDA-MB-231 cells = test: MTT assay, anticancer activity, MDA-MB-231; format: cell-based, human; details: for IC50: mean ± SD of three experiments
Method: as §1, §2

[3] = tested on: NO production in LPS-stimulated RAW 264.7 macrophages (iNOS); test: Griess assay, NO production in LPS-stimulated RAW 264.7 macrophages; format: cell-based, murine; details: 24 h, LPS 1 µg/mL, RAW 264.7, vs LPS only
Description: Inflammation is an important process, in which the immune system is activated, allowing the protection from infections by eliminating pathogens and promoting repairing phenomena. However, in some cases, the inflammation can become chronic, playing a key role in several diseases, such as cancer, diabetes, autoimmune and neurodegenerative disorders. Moreover, chronic inflammation is characterized by a proliferation of different specialized cells, for instance macrophages, fibroblasts, granulocytes and so on. […] NO is produced by nitric oxide synthases (NOS) isoforms, but under different pro-inflammatory stimuli (cytokines or microbial products) it is massively produced by the inducible NOS (iNOS, NOS2; or type II NOS). iNOS can be also overexpressed in several diseases, producing NO in an unregulated manner and contributing to the disease progression. For these reasons, its inhibition represents a good strategy for the treatment of various diseases related to chronic inflammation, amongst them cancer. The anti-inflammatory activity, in terms of NO production inhibition, of the new synthesized chiral complexes was evaluated by the means of a Griess-based assay. Particularly, the NO production was induced in murine macrophages RAW 264.7 stimulated with bacterial lipopolysaccharide (LPS), then they were exposed to the complexes for 24 h and the released NO was quantified (as detailed in the Section 3). […] Therefore, pro-ligands P1 and P2, as R and S pure enantiomers, were tested. The obtained outcomes are visible in Figure 2 (panels A and B, P1 and P2 series, respectively), where it is possible to notice “at glance” that most of the enantiopure compounds were unable to decrease the NO synthesis, induced by LPS treatment in RAW 264.7 macrophages (see pink bars in the graph), with the exception of (R)-AuL1 and (R)-AuL2. Particularly, (R)-AuL1 was able to decrease, dose-dependently, the NO production of about 23 and 35% at 5 and 10 µM, respectively, whereas the S enantiomer was unable to reduce NO, under the same experimental conditions. […] Furthermore, none of the pro-ligands was found able to decrease NO production. […] Finally, viability assays were performed on RAW 264.7 macrophages, recovered after the Griess test.
Anti-inflammatory activity was tested adopting the Griess assay on RAW 264.7 murine macrophages, by measuring NO production, as reported by. Specifically, RAW 264.7 cells were plated on 48 multi-wells and treated with the tested molecules at the indicated concentrations; lipopolysaccharide (LPS, Sigma Aldrich, Milan, Italy), at a final concentration of 1 µg/mL, was used to induce inflammation and stimulate NO production. After 24 h, the cell medium and Griess reagent were mixed at a 1:1 ratio and left under agitation for 30 min, at room temperature. Then, absorbance was measured at 540 nm, using a multiplate reader. The absorbance obtained allowed to assess the percentage of NO production compared with the positive control, in which the cells have been treated with LPS.
Figure 2 Panel (A), L1 series and panel (B), L2 series. Anti-inflammatory activity (pink bars): NO production was induced in murine macrophages RAW 264.7 treated with LPS (1 µg/mL), in presence or not of the enantiopure complexes and pro-ligands at the indicated concentrations (µM), for 24 h. Indomethacin (Ind) was used as the reference molecule. Data were plotted as % NO inhibition with respect to LPS-only treatment. […]

Compound	IC50 (MCF-10A cells)	M.B.C. S. aureus [1]	M.I.C. S. aureus [1]	IC50 (MCF-7 cells; 72 h)	M.B.C. E. coli [2]	M.I.C. E. coli [2]	IC50 (MDA-MB-231 cells; 72 h)	decrease of NO production ([3]; 5 µM)	decrease of NO production ([3]; 10 µM)	IC50 (MCF-10A cells; Homo sapiens, MCF-10A)	MIC [1]	IC50 (MCF-7 cells; Homo sapiens, MCF7, 72 h)	MIC [2]	IC50 (MDA-MB-231 cells; Homo sapiens, MDA-MB-231, 72 h)	effect on MDA-MB-231 viability (in words) (MDA-MB-231 cells; 72 h)	decrease of NO production ([3]; 50 µM)	strain sensitivity S. aureus (in words) ([1]; control for strain sensitivity)	strain sensitivity E. coli (in words) ([2]; control for strain sensitivity)
CN1C=CN(C[C@H](O)c2ccccc2)[CH]1[AgH][I] (stereo partly drawn) [(R)-AgL1, (1-((R)-2-hydroxy-2-phenylethyl)-3-methyl-2,3-dihydro-1H-imidazol-2-yl)silver(I) iodide]	54.8 ± 2.1 µM	> 150 µg/mL	75 µg/mL	14.5 ± 1.2 µM	> 100 µg/mL	25 µg/mL	9.2 ± 0.5 µM	–	–	–	–	–	–	–	–	–	–	–
CN1C(Cl)=C(Cl)N(C[C@H](O)c2ccccc2)[CH]1[AgH][I] (stereo partly drawn) [(R)-AgL2, (4,5-dichloro-1-((R)-2-hydroxy-2-phenylethyl)-3-methyl-2,3-dihydro-1H-imidazol-2-yl)silver(I) iodide]	69.2 ± 2.7 µM	> 150 µg/mL	75 µg/mL	18.4 ± 0.9 µM	> 100 µg/mL	50 µg/mL	6.7 ± 0.7 µM	–	–	–	–	–	–	–	–	–	–	–
CN1C=CN(C[C@H](O)c2ccccc2)[CH]1[Au-][Cl] (stereo partly drawn) [(R)-AuL1, (1-((R)-2-hydroxy-2-phenylethyl)-3-methyl-2,3-dihydro-1H-imidazol-2-yl)gold(I) chloride]	52.9 ± 2.2 µM	> 150 µg/mL	25 µg/mL	16 ± 0.8 µM	> 150 µg/mL	75 µg/mL	15.3 ± 4.5 µM	about 23%	~35%	–	–	–	–	–	–	–	–	–
C[n+]1ccn(C[C@H](O)c2ccccc2)c1.[I-] [(R)-P1, (R)-1-(2-hydroxy-2-phenylethyl)-3-methyl-1H-imidazol-3-ium iodide]	–	> 150 µg/mL	–	–	> 200 µg/mL	–	–	–	–	> 200 µM	75 µg/mL	> 200 µM	100 µg/mL	> 200 µM	–	–	–	–
C[n+]1cn(C[C@H](O)c2ccccc2)c(Cl)c1Cl.[I-] [(R)-P2, (R)-4,5-dichloro-1-(2-hydroxy-2-phenylethyl)-3-methyl-1H-imidazol-3-ium iodide]	–	> 150 µg/mL	–	–	> 200 µg/mL	–	–	–	–	> 200 µM	75 µg/mL	> 200 µM	75 µg/mL	> 200 µM	–	–	–	–
CN1C=CN(C[C@@H](O)c2ccccc2)[CH]1[AgH][I] (stereo partly drawn) [(S)-AgL1, (1-((S)-2-hydroxy-2-phenylethyl)-3-methyl-2,3-dihydro-1H-imidazol-2-yl)silver(I) iodide]	> 200 µM	> 100 µg/mL	50 µg/mL	69.8 ± 2.1 µM	> 200 µg/mL	75 µg/mL	> 200 µM	–	–	–	–	–	–	–	–	–	–	–
CN1C(Cl)=C(Cl)N(C[C@@H](O)c2ccccc2)[CH]1[AgH][I] (stereo partly drawn) [(S)-AgL2, (4,5-dichloro-1-((S)-2-hydroxy-2-phenylethyl)-3-methyl-2,3-dihydro-1H-imidazol-2-yl)silver(I) iodide]	> 200 µM	> 200 µg/mL	75 µg/mL	4 ± 0.5 µM	> 200 µg/mL	75 µg/mL	> 200 µM	–	–	–	–	–	–	–	inactive	–	–	–
CN1C=CN(C[C@@H](O)c2ccccc2)[CH]1[Au-][Cl] (stereo partly drawn) [(S)-AuL1, (1-((S)-2-hydroxy-2-phenylethyl)-3-methyl-2,3-dihydro-1H-imidazol-2-yl)gold(I) chloride]	64.5 ± 3.2 µM	> 150 µg/mL	75 µg/mL	14.6 ± 1 µM	> 150 µg/mL	75 µg/mL	22.6 ± 0.4 µM	–	–	–	–	–	–	–	–	–	–	–
CN1C(Cl)=C(Cl)N(C[C@@H](O)c2ccccc2)[CH]1[Au-][Cl] (stereo partly drawn) [(S)-AuL2, (4,5-dichloro-1-((S)-2-hydroxy-2-phenylethyl)-3-methyl-2,3-dihydro-1H-imidazol-2-yl)gold(I) chloride]	17.2 ± 1.6 µM	> 100 µg/mL	75 µg/mL	10 ± 0.5 µM	> 200 µg/mL	100 µg/mL	11.5 ± 0.4 µM	–	–	–	–	–	–	–	–	–	–	–
C[n+]1ccn(C[C@@H](O)c2ccccc2)c1.[I-] [(S)-P1, (S)-1-(2-hydroxy-2-phenylethyl)-3-methyl-1H-imidazol-3-ium iodide]	–	> 150 µg/mL	–	–	> 200 µg/mL	–	–	–	–	> 200 µM	75 µg/mL	> 200 µM	100 µg/mL	> 200 µM	–	–	–	–
C[n+]1cn(C[C@@H](O)c2ccccc2)c(Cl)c1Cl.[I-] [(S)-P2, (S)-4,5-dichloro-1-(2-hydroxy-2-phenylethyl)-3-methyl-1H-imidazol-3-ium iodide]	–	> 200 µg/mL	–	–	> 150 µg/mL	–	–	–	–	> 200 µM	75 µg/mL	> 200 µM	75 µg/mL	> 200 µM	–	–	–	–
COc1ccc2c(c1)c(CC(=O)O)c(C)n2C(=O)c1ccc(Cl)cc1 [Ind, Indomethacin, reference compound]	–	–	–	–	–	–	–	–	–	–	–	–	–	–	–	about 26%	–	–
CC1(C)S[C@@H]2[C@H](NC(=O)[C@H](N)c3ccccc3)C(=O)N2[C@H]1C(=O)O [ampicillin, reference compound]	–	–	–	–	–	–	–	–	–	–	–	–	–	–	–	–	sensitive	sensitive
